Data reported in patent publication US7344734B2, “Powder formulation” (Rijksuniversiteit Groningen, priority 2000, dated 2008).

Tests used:
Assay type in all cases: physicochemical
[1] = Laser diffraction analysis of the aerosol cloud from the Pharmachemie Cyclohaler (ISF inhaler); details: 60 l/min, 10 mg per capsule, six inhalations
From the text: (§1) The aerosol cloud from the inhaler was characterized with a laser diffraction technique (Sympatec HELOS Compact, model KA with 100 mm lens) using the Fraunhofer theory. A special inhaler adapter was used in order to adjust the required flow rate through the inhaler device. The adapter consisted of a cylindrical chamber with side tubes connecting the adapter at both sides to the housing of the laser diffraction apparatus. The inhaler device was connected to the front of the adapter, whereas the vacuum system was connected to the rear end of the adapter. Thus, a closed system was created through which the flow rate can be controlled very carefully and in which the aerosol cloud passes the laser beam for the measurement. Standard HELOS software was used: start and stop of the measurement was triggered on channel 32 with 0.1% difference in optical signal (compared with the signal during reference measurement). The mass fraction of the dose delivered by the inhaler was not analyzed during these experiments (no particle collector in line with the adapter).
Pure micronized Colistin was also inhaled with a commercial DPI (Pharmachemie Cyclohaler equals ISF Inhaler equals Novartis Foradil Inhaler, see FIG. 3), using the same (laser diffraction) procedures. Six hard gelatin capsules (no. 3) were filled with 10 mg per capsule and the capsules were sealed before use. Inhalation time was 3 seconds. […]

[2] = Laser diffraction analysis of the aerosol cloud from the test inhaler (cyclone); details: 60 l/min, 20 mg per inhalation, lactose fraction 63-106 μm, mean of 6 inhalations
Experimental: Inhalation experiments with the mixture were performed at 60 l/min with a test inhaler (see FIG. 1), having the same disintegration principle (cyclone) as the Colistin dry powder inhaler (prototype). […]
as §1
II The physical mixture with 83.3% Colistin was also tested with the test inhaler at 20, 30, 40 and 50 l/min. […]

[3] = Dry laser diffraction analysis of Colistin powder (RODOS dispersion)
Experimental: A lactose size fraction of 106-150 μm, derived from 100 M lactose (DMV International, Veghel, The Netherlands) was used as excipient. The fraction was prepared by subsequent vibratory sieving (20 minutes in a Fritsch Analysette 3, Idar-Oberstein, Germany) and air jet sieving (10 minutes in an Alpine A200, Augsburg, Germany) of small quantities (approx. 50 g) of the starting material. Micronized Colistin was prepared by fluid energy milling (GfM, Hamburg, Germany), but because the size distribution of the active ingredient was not satisfactory, size reduction of the crystalline material was continued for 26.5 hours in a ball mill (50 g in a container of 750 ml, filled with ceramic balls of different sizes to a filling degree of 67%). The container was placed on a home constructed drive. Size distributions before and after milling in the ball mill were measured with laser diffraction technique (Fraunhofer theory, using Sympatec HELOS Compact, model KA with 100 mm lens) using dry dispersion with a RODOS disperser at 4 bar.

[4] = primary Colistin particles, RODOS dispersion

Question: With Colistin as the substance, how does the “average median diameter for the aerosol cloud” value [1] read?
Answer: 18.23 micron

Question: And the “X-50 (μm) From cum. undersize curve” value [2]?
Answer: 2.3 μm

Question: And the “X-90 (μm) From cum. Undersize curve” value [2]?
Answer: 7.5 μm

Question: And the “mean diameter (X50-value)” value ([3]; after size reduction in the ball mill (26.5 hours), RODOS dispersion, n=3)?
Answer: 2.14 μm

Question: And the X100-value ([3]; after size reduction in the ball mill, RODOS dispersion)?
Answer: 87.0 μm

Question: What about the “mean diameter (X50-value)” value ([3]; before size reduction in the ball mill, RODOS disperser at 4 bar) of the same substance?
Answer: 6.43 μm

Question: What about the X100-value ([3]; before size reduction in the ball mill, RODOS dispersion) of the same substance?
Answer: 51.0 μm

Question: And the “X-50 (μm) From cum. undersize curve” value [3, 4]?
Answer: 2.1 μm

Question: And the “X-90 (μm) From cum. Undersize curve” value [3, 4]?
Answer: 31.0 μm
